Measurements: patent publication US20140349340A1, “MBTH-LIKE PROTEINS IN THE PRODUCTION OF SEMI SYNTHETIC ANTIBIOTICS” (DSM SINOCHEM PHARMACEUTICALS NETHERLANDS B.V., priority 2012, published 2014)

What was measured:
Assay type in all cases: biochemical
[1] = PPi release assay, adenylation activity with L-phenylglycine; settings: for Formed PPi: substrate L-PG 1 mM; for adenylation activity (PPi release assay): substrate L-phenylglycine, co-purified with Tcp13, or Tcp17 or VMbtH
From the text: (§1) These assays use inorganic pyrophosphatases to convert PPi produced during aminoacyl-AMP formation to orthophosphate (Pi). To measure Pi concentrations some of these assays use molybdate/malachite green reagent for colorimetric detection (McQuade et al. 2008) or, as used in the context of the present invention, a shift in absorbance maximum by conversion of 7-methyl-6-thioguanosine (MESG) by purine nucleoside phosphorylase (Ehmann D. E. et al. (Proc. Natl. Acad. Sci. (2000) 97, 2509-2514) or Daniel & Aldrich (Anal. Biochem. (2010) 404, 56-63)).
(§2) To determine the adenylation activity of the adenylation domains, the Enzchek® pyrophosphate assay kit (Life Technologies) was used as described by Ehmann D. E. et al. (Proc Nat Acad Science (2000) 97, 2509-2514) with small modifications. The reactions were performed 96 wells UV/Vis transparent plates (BD Falcon). The reaction mixture comprises 50 mM HEPES pH 8.0, 10 mM MgCl2, 5 mM ATP, 75 mM DTT, 0.03 U Inorganic Pyrophosphatase (IP), 1 U Purine Nucleoside Phosphorylase (PNP) and 0.2 mM MESG in a volume of 70 μl. Next 20 μl (around 0.5-2 μM final concentration) of purified A(T) domain, with or without co-purification of the MbtH like helper protein was added and the reaction was pre-incubated for 15 minutes at RT to reduce contaminating Pi. Following the pre-incubation, 10 μl of a 10 mM or 1 mM solution of the appropriate amino acid depending on the performed specificity determination was added to initiate the adenylation reaction and the absorbance at 360 nm was measured using a TECAN I Control spectrophotometer. Absorbance measurements were made every 5 to 10 min over a period of up to 240 min. A reaction with addition of 10 μl MilliQ water instead was used to determine and subtract the background absorbance. As substrates the following amino acids were used: D- or L-phenylalanine, D- or L-hydroxyphenylglycine, D- or L-phenylglycine, L-tryptophan, L-valine, L-cysteine, and L-leucine.

[2] = PPi release assay, adenylation activity with L-hydroxyphenylglycine; settings: for adenylation activity (absorption 360 nm, PPi release assay) / adenylation activity (PPi release assay): substrate L-hydroxyphenylglycine
From the text: as §1, §2

[3] = PPi release assay, adenylation activity with D-hydroxyphenylglycine; settings: for adenylation activity (absorption 360 nm, PPi release assay) / adenylation activity (PPi release assay): substrate D-hydroxyphenylglycine
From the text: as §1, §2

[4] = PPi release assay, adenylation activity with L-phenylalanine; settings: substrate L-phenylalanine; for adenylation activity (PPi release assay): co-purified with Tcp13, or Tcp17 or VMbtH
From the text: as §1, §2

[5] = PPi release assay, adenylation activity with D-phenylalanine; settings: substrate D-phenylalanine; for adenylation activity (PPi release assay): co-purified with Tcp13, or Tcp17 or VMbtH
From the text: as §1, §2

[6] = PPi release assay, adenylation activity with D-phenylglycine; settings: for Formed PPi: substrate D-PG 1 mM; for adenylation activity (PPi release assay): substrate D-phenylglycine, co-purified with Tcp13, or Tcp17 or VMbtH
From the text: as §1, §2

[7] = co-purified with MbtH-like protein Tcp 13
[8] = co-purified with MbtH-like protein Tcp 17
[9] = co-purified with MbtH-like protein VMbtH
[10] = co-purified with MbtH-like protein Tcp13
[11] = protein alone, without MbtH-like protein
[12] = co-purified with MbtH-like protein CMbtH
[13] = co-purified with Tcp13, or Tcp17 or VMbtH

## Tcp11_M1_A: purified adenylation domain of Tcp11 module M1 (SEQ ID NO: 7), maltose binding protein fusion, His-tag; Actinoplanes teichomyceticus
[1]; [7]
  Formed PPi: 0.17 mM/min/mM enzyme
[1]; [8]
  Formed PPi: 0.23 mM/min/mM enzyme
[1]; [9]
  Formed PPi: 0.09 mM/min/mM enzyme
[2]; substrate L-HPG 0.1 mM, co-purified with MbtH-like protein Tcp 13
  Formed PPi: 0.80 mM/min/mM enzyme
[2]; substrate L-HPG 0.1 mM, co-purified with MbtH-like protein Tcp 17
  Formed PPi: 0.95 mM/min/mM enzyme
[2]; substrate L-HPG 0.1 mM, co-purified with MbtH-like protein VMbtH
  Formed PPi: 1.38 mM/min/mM enzyme
[2]; substrate L-HPG 1 mM, co-purified with MbtH-like protein Tcp 13
  Formed PPi: 1.03 mM/min/mM enzyme
[2]; substrate L-HPG 1 mM, co-purified with MbtH-like protein Tcp 17
  Formed PPi: 1.04 mM/min/mM enzyme
[2]; substrate L-HPG 1 mM, co-purified with MbtH-like protein VMbtH
  Formed PPi: 1.54 mM/min/mM enzyme
[2]; [10]
  adenylation activity (absorption 360 nm, PPi release assay): clear adenylation activity
[2]; [11]
  adenylation activity (absorption 360 nm, PPi release assay): No adenylation activity
[3]; substrate D-HPG 0.1 mM, co-purified with MbtH-like protein Tcp 13
  Formed PPi: 0.08 mM/min/mM enzyme
[3]; substrate D-HPG 0.1 mM, co-purified with MbtH-like protein Tcp 17
  Formed PPi: 0.11 mM/min/mM enzyme
[3]; substrate D-HPG 0.1 mM, co-purified with MbtH-like protein VMbtH
  Formed PPi: 0 mM/min/mM enzyme
[3]; substrate D-HPG 1 mM, co-purified with MbtH-like protein Tcp 13
  Formed PPi: 0.66 mM/min/mM enzyme
[3]; substrate D-HPG 1 mM, co-purified with MbtH-like protein Tcp 17
  Formed PPi: 0.63 mM/min/mM enzyme
[3]; substrate D-HPG 1 mM, co-purified with MbtH-like protein VMbtH
  Formed PPi: 0.86 mM/min/mM enzyme
[3]; [10]
  adenylation activity (absorption 360 nm, PPi release assay): clear adenylation activity
[3]; [11]
  adenylation activity (absorption 360 nm, PPi release assay): No adenylation activity
[4]; [10]
  adenylation activity (absorption 360 nm, PPi release assay): no activity
[4]; [11]
  adenylation activity (absorption 360 nm, PPi release assay): No adenylation activity
[5]; [10]
  adenylation activity (absorption 360 nm, PPi release assay): no activity
[5]; [11]
  adenylation activity (absorption 360 nm, PPi release assay): No adenylation activity
[6]; [7]
  Formed PPi: 0 mM/min/mM enzyme
[6]; [8]
  Formed PPi: 0.04 mM/min/mM enzyme
[6]; [9]
  Formed PPi: 0 mM/min/mM enzyme

## ComB_M1_A: purified adenylation domain of ComB module M1 (SEQ ID NO: 9); Streptomyces lavendulae
[1]
  adenylation activity (PPi release assay): no adenylation activity
[2]; [12]
  adenylation activity (PPi release assay): confirmed its activity
[2]; [13]
  adenylation activity (PPi release assay): no adenylation activity
[2]; [11]
  adenylation activity (absorption 360 nm, PPi release assay): No adenylation activity
[3]; [12]
  adenylation activity (PPi release assay): confirmed its activity
[3]; [13]
  adenylation activity (PPi release assay): no adenylation activity
[3]; [11]
  adenylation activity (absorption 360 nm, PPi release assay): No adenylation activity
[4]
  adenylation activity (PPi release assay): no adenylation activity
[4]; [11]
  adenylation activity (absorption 360 nm, PPi release assay): No adenylation activity
[5]
  adenylation activity (PPi release assay): no adenylation activity
[5]; [11]
  adenylation activity (absorption 360 nm, PPi release assay): No adenylation activity
[6]
  adenylation activity (PPi release assay): no adenylation activity

## BpsB_M1_A: purified adenylation domain of BpsB module M1 (SEQ ID NO: 26); Amycolatopsis balhimycina
[1]
  adenylation activity (PPi release assay): no adenylation activity
[2]; co-purified with MbtH-like protein BMbtH
  adenylation activity (PPi release assay): confirmed its activity
[2]; [13]
  adenylation activity (PPi release assay): no adenylation activity
[2]; [11]
  adenylation activity (absorption 360 nm, PPi release assay): No adenylation activity
[3]; [13]
  adenylation activity (PPi release assay): no adenylation activity
[3]; [11]
  adenylation activity (absorption 360 nm, PPi release assay): No adenylation activity
[4]
  adenylation activity (PPi release assay): no adenylation activity
[4]; [11]
  adenylation activity (absorption 360 nm, PPi release assay): No adenylation activity
[5]
  adenylation activity (PPi release assay): no adenylation activity
[5]; [11]
  adenylation activity (absorption 360 nm, PPi release assay): No adenylation activity
[6]
  adenylation activity (PPi release assay): no adenylation activity
